# Assays:
# platelets [1] = assay: Analysis of phosphatidylserine (PS) exposure by FACS (AnnexinV-FITC); format: cell-based, human
# Procedure: PS exposure was measured by FACS analysis of bound AnnexinV-FITC using 488 nm for excitation and 530 nm for emission. (Shapira S, Friedman Z et al., “The effect of storage on the expression of platelet membrane phosphatidylserine and the subsequent impact on the coagulant function of stored platelets”, Transfusion 2000, 40:1257-1263)
# platelets [2] = assay: ATP quantitation in stored platelets (luminometric ATP bioluminescence kit); format: cell-based, human
# Procedure: PC fractions were identically prepared from CO pretreated or untreated blood by consecutive centrifugation in a sterile environment using blood bank conditions. Bicarbonate (4% of PC volume) was then added from a stock solution of 750 mM with agitation to yield a final bicarbonate concentration of 30 mM. Next, the PC was treated with CO in a similar manner to whole blood. Alternatively, rather than applying a vacuum, the containers were flushed for 10 min. with sterile CO while agitating the containers, which were then sealed. The containers were allowed to stay at room temperature of 20-24 degree C.° PRP platelets were treated similarly.
# A luminometric ATP was measured by Veritas™ Microplate Luminometer (Tuner Biosystems) by using an ATP bioluminescence kit (CLS II) from Roche (cat No. 11 699 709 001) Mannheim Germany The assay was performed according to the manufacturer's instructions. Briefly: 50 μl of cell lysate (500000 cell per sample) or ATP standard concentration was added in advance to each well in 96 well LIA-white plate (Greiner bio one). Automatic injection of 50 μof substrate solution (luciferin and luciferase) was added to each well by the device and the luminescence was measured. ATP concentrations were calculated based on an ATP standard curve. Each sample was tested in triplicate.
# [3] = tested on: human platelets in rabbit blood circulation; assay: In vivo platelets viability analysis in a rabbit model
# Procedure: Female New Zealand white rabbits (2.5-3 kg) were infused with Ethyl Palmytate (EP) to inhibit the Macrophages function (Blajchman M A and Lee D H, “The thrombocytopenic rabbit bleeding time model to evaluate the in vivo hemostatic efficacy of platelets and platelet substitutes”, Transfus Med Rev 1997, 11:95-105). EP solution (10 ml) was prepared by mixing (up to homogeneity) of 2.25 ml EP with 7.75 ml of 5% dextrose containing 1% Tween-20.
# […] Blood samples at time intervals were analyzed by flow cytometry with FITC labeled anti-CD42a for the presence of human platelets (Rothwell S W, Maglasang P et al., “Survival of fresh human platelets in a rabbit model as traced by flow cytometry”, Transfusion 1998, 38:550-556; Leytin V, Allen D J et al., “A rabbit model for monitoring in vivo viability of human platelet concentrates using flow cytometry”, Transfusion 2002, 42:711-718). 100% represented the total number of normalized human platelet in rabbit circulation after 30 min from the injection.
smiles,measurement,setting,value
"[C-]#[O+] [COatm, carbon monoxide]",PS exposure after transfer to air,"platelets [1]; 9 days COatm-stored, then re-aerated (FIG. 6d)",another fraction returned to very low PS exposure
same,"PS exposure, change during extended storage",platelets [1]; extended storage under COatm up to 9 days,no further changes
same,PS exposure,platelets [1]; several hours of storage under COatm (FIG. 6b),most cells are PS-exposed
same,ATP level relative to the initial value of the ATP of air preserved platelets,"platelets [2]; 5 days COatm storage, then overnight re-aeration",74%
same,ATP level relative to the level in fresh PC,platelets [2]; platelets stored as PC 5 days under anaerobic COatm,28%
same,time dependent survival of stored human platelets in rabbit blood circulation,"[3]; 7 days stored, COatm vs air-stored (FIG. 5)",survive longer in vivo than air-stored platelets
same,survival of stored platelets in rabbit blood circulation,"[3]; Plt preserved for 9 days, COatm vs air (FIG. 5)",survived for longer in blood circulation
